Where a name gives a salt, the structure may show the parent alone.

For data set [1] the following is noted: (S)-ketamine versus (R) form; cited from earlier work.
Data set [2] can be described thus: pH value of oral thin film dissolved in demineralised water. Type of data set: physicochemical. The conditions noted are these: Measured as dissolved OTF in demineralised water temperature-controlled to 32° C. (blank value pH 7.12). The protocol: Oral thin films of the composition according to Table 1 were prepared as follows. The active ingredient or the active ingredient mixture was presented and an aqueous solution of the matrix polymer was added. The remaining ingredients were then stirred in. The solution was spread and dried in order to obtain an oral thin film.

`CNC1(c2ccccc2Cl)CCCCC1=O` (racemic) [(S)-ketamine, (S)-(±)-2-(2-chlorophenyl)-2-(methylamino)cyclohexan-1-one]: the “analgesic and anaesthetic potency relative to the (R) form” value in data set [1] is “approximately three times higher”.
Molecule `CNC1(c2ccccc2Cl)CCCCC1=O` (centres unmarked) [ketamine hydrochloride] returned a pH-value in data set [2] of 5.32.

Values taken from patent publication US20240148672A1, “ORAL THIN FILM” (LTS LOHMANN THERAPIE-SYSTEME AG, priority 2021, published 2024).
